Results: patent publication US4238620A, “Dibenz[b,f]oxepin and dibenzo[b,f]thiepin derivatives, process for preparation thereof, method of using the same, and compositions thereof” (priority 1978, dated 1980)
Read-outs that look alike come from different tables or passages of the source.

Legend:
[1] = tested on: Carrageenin-induced hind paw oedema in rats; experiment: Carrageenin-induced hind paw oedema in rats (CAR method), acute inflammation; assay type: in vivo; conditions: Rattus norvegicus, po, read-out: Anti-inflammatory activity ED50, acute inflammation, CAR
Method: (§1) (1) Effect on acute inflammation:
(a) Carrageenin-induced hind paw oedema in rats (CAR method)
The test was carried out according to the method described in Proc. Soc. Exp. Biol. Med., 111, 544 (1962).

[2] = tested on: Ultraviolet-induced erythema in guinea-pigs; experiment: Ultraviolet-induced erythema in guinea-pigs (UVE method), acute inflammation; assay type: in vivo; conditions: Cavia porcellus, po, read-out: Anti-inflammatory activity ED50, acute inflammation, UVE
Method: as §1
(b) Ultraviolet-induced erythema in guinea-pigs (UVE method)
The test was carried out according to the method described in Arch. Int. Pharmacodyn. Ther., 116, 261 (1958).

[3] = tested on: adjuvant-induced arthritis in rats; experiment: Therapeutic activity on adjuvant-induced arthritis in rats (AAT method), subacute and chronic inflammation; assay type: in vivo; conditions: Rattus norvegicus, po, read-out: Minimum Effective Dose, subacute and chronic inflammation, AAT*
Method: (§2) (2) Effect on subacute and chronic inflammations:
(a) Therapeutic activity on adjuvant-induced arthritis in rats (AAT method)
The test was carried out according to the method described in Brit. J. Pharmacol., 21, 127 (1963) and Japan J. Pharmacol., 23, 58 (1973).

[4] = tested on: Felt pellet-induced granuloma formation in rats; experiment: Felt pellet-induced granuloma formation in rats (FGF method), subacute and chronic inflammation; assay type: in vivo; conditions: Rattus norvegicus, po, read-out: Minimum Effective Dose, subacute and chronic inflammation, FGF*
Method: as §2
(b) Felt pellet-induced granuloma formation in rats (FGF method)
The test was carried out according to the method described in J. Amer. Pharm. Assoc., 46, 515 (1957) and Chem. Pharm. Bull., 23, 1446 (1975).

[5] = tested on: AgNO3-induced joint pain in rats; experiment: AgNO3-induced joint pain in rats (AGP method), analgesic activity; assay type: in vivo; conditions: Rattus norvegicus, po, read-out: Analgesic activity ED50, AGP
Method: (§3) TEST 2. ANALGESIC ACTIVITY
(a) AgNO3 -induced joint pain in rats (AGP method)
The test was carried out according to the method described in J. Pharmacol. Expt. Ther., 98, 19 (1950)

[6] = tested on: Acetic acid (AcOH)-induced writhing in rats; experiment: Acetic acid (AcOH)-induced writhing in rats (ACW method), analgesic activity; assay type: in vivo; conditions: Rattus norvegicus, po, read-out: Analgesic activity ED50, ACW
Method: as §3
(b) Acetic acid (AcOH)-induced writhing in rats (ACW method)
The test was carried out according to the method described in Arzneim. Forsch., 25, 1505 (1975).

[7] = tested on: Yeast-induced fever in rats; experiment: Yeast-induced fever in rats (YEF method), antipyretic activity; assay type: in vivo; conditions: Rattus norvegicus, po, read-out: Antipyretic activity ED50, YEF
Method: TEST 3. ANTIPYRETIC ACTIVITY
Yeast-induced fever in rats (YEF method)
The test was carried out according to the method described in Arzneim. Forsch., 13, 338 (1963).

[8] = Gastrointestinal ulcer formation in fed rats (ulcerogenicity); assay type: in vivo; conditions: rat, in vivo, po, fed rats; read-out: UD50 (50% ulcer forming dose)
Method: (§4) TEST 4. ULCEROGENICITY IN GASTROINTESTINAL TRACT
(§5) Gastrointestinal ulcer formation in fed rats
(§6) The test was carried out according to the method described in Science, 170, 183 (1970).

in vivo [9] = conditions: rat, po
in vivo [10] = conditions: rat, po; remark: listed apart in the source
Method: (§7) (b) Repeated administrations in rats
(§8) Test compounds were orally administered once daily for 5 days, and LD50 -value was calculated from the mortality on the 6th day.

[11] = Overall comparison of anti-inflammatory, analgesic and antipyretic activities (Tests 1 to 3); assay type: in vivo, rats; guinea-pigs; conditions: for anti-inflammatory, analgesic and antipyretic activities compared with indomethacin: vs indomethacin (compound 3)
Text: (§9) From these diagrams, the correlation between the pharmacological activity of each compound and its ulcerogenicity and toxicity, i.e. the safety margin of each compound, can be clearly seen. In these Figures, the lines and letters have the following meanings:
(§10) The following conclusions can be drawn from Tables I to III and FIGS. 1 and 2. In the following description, the therapeutic index means LD50 /ED50 (or MED), and the safety index means UD50 /ED50 (or MED). The safety margin of a given compound is broader when it has larger therapeutic and or safety indices.

[12] = assay type: in vivo; conditions: for therapeutic index compared with indomethacin: vs indomethacin
Text: In the following description, the therapeutic index means LD50 /ED50 (or MED), and the safety index means UD50 /ED50 (or MED).

[13] = Safety index (UD50/ED50 or MED), separation of activity from ulcerogenicity; assay type: in vivo; conditions: for separation of anti-inflammatory, analgesic and antipyretic activities from ulcerogenicity: FIGS. 1 and 2, vs indomethacin
Text: as §9, §10

rats = experiment: Overall comparison of lethal toxicity (Test 5); assay type: in vivo; conditions: for toxicity compared with indomethacin (in words): vs indomethacin
Method: (a) Single administration in rats
as §7, §8

[14] = tested on: Gastrointestinal ulcer formation in fed rats; experiment: Gastrointestinal ulcer formation in fed rats (ulcerogenicity); assay type: in vivo; conditions: fraction of that of compound 2
Method: as §4, §5, §6

[15] = rats, single administration, 7th day, read-out: LD50 Single
[16] = rats, once daily for 5 days, mortality on 6th day, read-out: LD50 Repeated

SMILES	ED50 [1] [mg/kg]	ED50 [2] [mg/kg]	minimal effective dose [3] [mg/kg/day]	minimal effective dose [4] [mg/kg/day]	ED50 [5] [mg/kg]	ED50 [6] [mg/kg]	ED50 [7] [mg/kg]	TD50 [8] [mg/kg]	LD50 at 168 h (in vivo [9]; [15]) [mg/kg]	LD50 at 144 h (in vivo [10]; [16]) [mg/kg]	toxicity compared with indomethacin (in words) (rats)	ED50 ([1]; rats, CAR method) [mg/kg]	other results
Cc1ccc2c(c1)CC(=O)c1cc(C(C)C(=O)O)ccc1O2 (racemic) [compound A, dl-2-(8-Methyl-10,11-dihydro-11-oxodibenz[b,f]oxepin-2-yl)propionic acid]	3.38	0.3	0.2	2	2.6	0.28	0.021	2.97	147	> 12	far weaker than those of indomethacin	–	pharmacological activities compared with compound 1 ([11]; vs compound 1): stronger pharmacological activities in all the methods tested; pharmacological potency and/or safety margin compared with compound 1 ([11]; vs compound 1): superior to compound 1 not only in pharmacological activities but also in safety margin; anti-inflammatory, analgesic and antipyretic activities compared with indomethacin [11]: equivalent or superior to those of indomethacin; average therapeutic index relative to compound 1 ([12]; LD50/ED50 (or MED), vs compound 1): about 3.7 times; therapeutic index compared with indomethacin [12]: far larger therapeutic indices than indomethacin; separation of anti-inflammatory, analgesic and antipyretic activities from ulcerogenicity [13]: more separated from ulcerogenicity in the gastrointestinal tract than in indomethacin; average safety index relative to compound 1 ([13]; UD50/ED50 (or MED), vs compound 1): about 1.6 times; toxicity relative to compound 1 (rats; vs compound 1): less toxic than compound 1
CC(C(=O)OCCOCCO)c1ccc2c(c1)C(=O)Cc1ccccc1O2 (racemic) [compound D, 2-(2-Hydroxyethoxy)ethyl dl-2-(10,11-dihydro-11-oxodibenz[b,f]oxepin-2-yl)propionate]	–	–	–	–	–	–	–	–	–	–	far weaker than those of indomethacin	2.87	ED50 ([2]; guinea-pigs, UVE method): 1.5 mg/kg; minimal effective dose ([3]; rats, AAT method): 1 mg/kg/day; minimal effective dose ([4]; rats, FGF method): 6 mg/kg/day; ED50 ([5]; rats, AGP method): 4.6 mg/kg; ED50 ([6]; rats, ACW method): 1.06 mg/kg; ED50 ([7]; rats, YEF method): 0.112 mg/kg; LD50 at 168 h (in vivo [9]): 260 mg/kg; LD50 at 144 h (in vivo [10]): > 24 mg/kg; activity on subacute and chronic inflammation compared with indomethacin ([11]; AAT and FGF, vs indomethacin): inferior to that of indomethacin; anti-inflammatory (acute), analgesic and antipyretic activities compared with indomethacin ([11]; acute inflammation, analgesic, antipyretic, vs indomethacin): almost equivalent to those of indomethacin; pharmacological activities compared with compound 1 ([11]; vs compound 1): comparable to those of compound 1
Cc1ccc2c(c1)CC(=O)c1cc(C(C)C(=O)OCCOCCO)ccc1S2 (racemic) [compound G, 2-(2-Hydroxyethoxy)ethyl dl-2-(8-methyl-10,11-dihydro-11-oxodibenzo[b,f]thiepin-2-yl)propionate]	5.94	2.52	≤ 0.2	–	0.96	0.33	0.041	2.94	–	> 16	far weaker than those of indomethacin	–	ulcerogenicity relative to compound 2 [14]: about 1/5; analgesic activity compared with compounds 2 and C ([11]; AGP, ACW, vs compounds 2 and C): stronger than those of compounds 2 and C; antiinflammatory and antipyretic activities compared with compounds 2 and C ([11]; vs compounds 2 and C): weaker than those of compounds 2 and C; anti-inflammatory, analgesic and antipyretic activities compared with indomethacin [11]: equivalent or superior to those of indomethacin; average therapeutic index relative to compound 2 ([12]; LD50/ED50 (or MED), vs compound 2): more than 8 times; breadth of safety margin compared with compound 2 ([12]; safety margin, vs compound 2): far superior to compound 2; therapeutic index compared with indomethacin [12]: far larger therapeutic indices than indomethacin; separation of anti-inflammatory, analgesic and antipyretic activities from ulcerogenicity [13]: more separated from ulcerogenicity in the gastrointestinal tract than in indomethacin; average safety index relative to compound 2 ([13]; UD50/ED50 (or MED), vs compound 2): about 5 times; toxicity relative to compound 2 (rats; fraction of that of compound 2): less than 1/7
CC(C(=O)O)c1ccc2c(c1)C(=O)Cc1ccccc1O2 (stereo not drawn) [compound 1, 2-(10,11-dihydro-11-oxodibenz[b,f]oxepin-2-yl)propionic acid, reference compound]	3.65	0.93	1	3	5.8	–	0.062	4.85	106	–	–	–	–
CC(C(=O)O)c1ccc2c(c1)C(=O)Cc1ccccc1S2 (stereo not drawn) [compound 2, 2-(10,11-dihydro-11-oxodibenzo[b,f]thiepin-2-yl)propionic acid, reference compound]	1.2	0.98	< 0.1	0.25	1.66	1.16	0.022	0.62	–	2.15	–	–	–
COc1ccc2c(c1)c(CC(=O)O)c(C)n2C(=O)c1ccc(Cl)cc1 [compound 3, indomethacin, reference compound]	3.3	9.12	0.2 to 0.4	2	4.1	0.44	0.223	3.95	18.5	~5	–	–	–
Cc1ccc2c(c1)CC(=O)c1cc(CC(=O)O)ccc1O2 [compound B, 8-Methyl-10,11-dihydro-11-oxodibenz[b,f]oxepin-2-acetic acid]	–	–	–	–	–	–	–	–	–	–	–	2.2	ED50 ([2]; guinea-pigs, UVE method): 4.48 mg/kg; minimal effective dose ([4]; rats, FGF method): 20 mg/kg/day; ED50 ([7]; rats, YEF method): 0.357 mg/kg; activity on acute inflammation and fever compared with indomethacin ([11]; acute inflammation and fever, vs indomethacin): nearly comparable to that of indomethacin
Cc1ccc2c(c1)CC(=O)c1cc(CC(=O)OCCOCCO)ccc1O2 [compound F, 2-(2-Hydroxyethoxy)ethyl 8-methyl-10,11-dihydro-11-oxodibenz[b,f]oxepin-2-acetate]	–	–	–	–	–	–	–	–	–	–	–	7.95	–
